# Legend:
# Format in all cases: functional, cell-based
# [1] = system: SNB-19; test: Antiproliferative activity against human SNB-19 cells measured after 48 hrs by SRB assay
# [2] = system: EKVX; test: Antiproliferative activity against human EKVX cells measured after 48 hrs by SRB assay
# [3] = system: U-251; test: Antiproliferative activity against human U-251 cells measured after 48 hrs by SRB assay
# [4] = system: SW-620; test: Antiproliferative activity against human SW-620 cells measured after 48 hrs by SRB assay
# [5] = system: IGROV-1; test: Antiproliferative activity against human IGROV-1 cells measured after 48 hrs by SRB assay
# [6] = system: HL-60(TB); test: Antiproliferative activity against human HL-60(TB) cells measured after 48 hrs by SRB assay
# [7] = system: OVCAR-3; test: Antiproliferative activity against human OVCAR-3 cells measured after 48 hrs by SRB assay
# [8] = system: HOP-62; test: Antiproliferative activity against human HOP-62 cells measured after 48 hrs by SRB assay
# [9] = system: K562; test: Antiproliferative activity against human K562 cells measured after 48 hrs by SRB assay
# [10] = system: MCF7; test: Antiproliferative activity against human MCF7 cells measured after 48 hrs by SRB assay
# [11] = system: SK-MEL-2; test: Antiproliferative activity against human SK-MEL-2 cells measured after 48 hrs by SRB assay
# [12] = system: HT-29; test: Antiproliferative activity against human HT-29 cells measured after 48 hrs by SRB assay
# [13] = system: Hs-578T; test: Antiproliferative activity against human Hs-578T cells measured after 48 hrs by SRB assay
# [14] = system: UACC-257; test: Antiproliferative activity against human UACC-257 cells measured after 48 hrs by SRB assay
# [15] = system: SF-539; test: Antiproliferative activity against human SF-539 cells measured after 48 hrs by SRB assay
# [16] = system: MOLT-4; test: Antiproliferative activity against human MOLT-4 cells measured after 48 hrs by SRB assay
# [17] = system: PC-3; test: Antiproliferative activity against human PC-3 cells measured after 48 hrs by SRB assay
# [18] = system: MDA-MB-468; test: Antiproliferative activity against human MDA-MB-468 cells measured after 48 hrs by SRB assay
# [19] = system: HOP-92; test: Antiproliferative activity against human HOP-92 cells measured after 48 hrs by SRB assay
# [20] = system: SF-268; test: Antiproliferative activity against human SF-268 cells measured after 48 hrs by SRB assay
# [21] = system: A498; test: Antiproliferative activity against human A498 cells measured after 48 hrs by SRB assay
# [22] = system: SK-MEL-5; test: Antiproliferative activity against human SK-MEL-5 cells measured after 48 hrs by SRB assay
# [23] = system: OVCAR-8; test: Antiproliferative activity against human OVCAR-8 cells measured after 48 hrs by SRB assay
# [24] = system: A549; test: Antiproliferative activity against human A549 cells measured after 48 hrs by SRB assay
# [25] = system: CAKI-1; test: Antiproliferative activity against human CAKI-1 cells measured after 48 hrs by SRB assay
# [26] = system: SN12C; test: Antiproliferative activity against human SN12C cells measured after 48 hrs by SRB assay
# [27] = system: NCI-H23; test: Antiproliferative activity against human NCI-H23 cells measured after 48 hrs by SRB assay
# [28] = system: NCI-H460; test: Antiproliferative activity against human NCI-H460 cells measured after 48 hrs by SRB assay
# [29] = system: UACC-62; test: Antiproliferative activity against human UACC-62 cells measured after 48 hrs by SRB assay
# [30] = system: RXF 393; test: Antiproliferative activity against human RXF 393 cells measured after 48 hrs by SRB assay
# [31] = system: WI-38; test: Antiproliferative activity against human WI-38 cells measured by MTT assay
# [32] = system: SF-295; test: Antiproliferative activity against human SF-295 cells measured after 48 hrs by SRB assay
# [33] = system: OVCAR-4; test: Antiproliferative activity against human OVCAR-4 cells measured after 48 hrs by SRB assay
# [34] = system: SR; test: Antiproliferative activity against human SR cells measured after 48 hrs by SRB assay
# [35] = system: M14; test: Antiproliferative activity against human M14 cells measured after 48 hrs by SRB assay
# [36] = system: COLO 205; test: Antiproliferative activity against human COLO 205 cells measured after 48 hrs by SRB assay
# [37] = system: SK-OV-3; test: Antiproliferative activity against human SK-OV-3 cells measured after 48 hrs by SRB assay
# [38] = system: 786-0; test: Antiproliferative activity against human 786-0 cells measured after 48 hrs by SRB assay
# [39] = system: Malme-3M; test: Antiproliferative activity against human Malme-3M cells measured after 48 hrs by SRB assay
compound,measurement,setting,value
O=C(NCCCNc1cc(-c2cn(-c3ccccc3)nc2-c2cccc(O)c2)ccn1)Nc1cccc(C(F)(F)F)c1,IC50,"[1]; SNB-19, 48 h",3.99 µM
same,TGI,"[1]; SNB-19, time 48 hrs",8.97 µM
same,IC50,[2]; 48 h,3.5 µM
same,TGI,[2]; time 48 hrs,8.45 µM
same,IC50,"[3]; U-251, 48 h",2.57 µM
same,TGI,"[3]; U-251, time 48 hrs",7.45 µM
same,IC50,"[4]; SW-620, 48 h",3.85 µM
same,TGI,"[4]; SW-620, time 48 hrs",8.31 µM
same,IC50,"[5]; IGROV-1, 48 h",2.83 µM
same,TGI,"[5]; IGROV-1, time 48 hrs",7.98 µM
same,IC50,"[6]; HL-60, 48 h",3.42 µM
same,TGI,"[6]; HL-60, time 48 hrs",14.5 µM
same,IC50,"[7]; OVCAR-3, 48 h",1.87 µM
same,TGI,"[7]; OVCAR-3, time 48 hrs",9.35 µM
same,IC50,"[8]; HOP-62, 48 h",4.09 µM
same,TGI,"[8]; HOP-62, time 48 hrs",9.59 µM
same,IC50,"[9]; K562, 48 h",1.26 µM
same,TGI,"[9]; K562, time 48 hrs",> 14.5 µM
same,IC50,"[10]; MCF7, 48 h",2.73 µM
same,TGI,"[10]; MCF7, time 48 hrs",9.39 µM
same,IC50,"[11]; SK-MEL-2, 48 h",5.29 µM
same,TGI,"[11]; SK-MEL-2, time 48 hrs",11.7 µM
same,IC50,"[12]; HT-29, 48 h",1.51 µM
same,TGI,"[12]; HT-29, time 48 hrs",6.19 µM
same,IC50,[13]; 48 h,1.34 µM
same,TGI,[13]; time 48 hrs,7.74 µM
same,IC50,"[14]; UACC-257, 48 h",4.8 µM
same,TGI,"[14]; UACC-257, time 48 hrs",10.1 µM
same,IC50,"[15]; SF-539, 48 h",2.78 µM
same,TGI,"[15]; SF-539, time 48 hrs",7.18 µM
same,IC50,"[16]; MOLT-4, 48 h",1.67 µM
same,TGI,"[16]; MOLT-4, time 48 hrs",15 µM
same,IC50,"[17]; PC-3, 48 h",1.79 µM
same,TGI,"[17]; PC-3, time 48 hrs",11.2 µM
same,IC50,"[18]; MDA-MB-468, 48 h",1.61 µM
same,TGI,"[18]; MDA-MB-468, time 48 hrs",6.16 µM
same,IC50,"[19]; HOP-92, 48 h",1.25 µM
same,TGI,"[19]; HOP-92, time 48 hrs",6.01 µM
same,IC50,"[20]; SF-268, 48 h",3.26 µM
same,TGI,"[20]; SF-268, time 48 hrs",9.69 µM
same,IC50,"[21]; A498, 48 h",3.17 µM
same,TGI,"[21]; A498, time 48 hrs",7.18 µM
same,IC50,"[22]; SK-MEL-5, 48 h",3.25 µM
same,TGI,"[22]; SK-MEL-5, time 48 hrs",7.17 µM
same,IC50,"[23]; OVCAR-8, 48 h",3.88 µM
same,TGI,"[23]; OVCAR-8, time 48 hrs",10 µM
same,IC50,"[24]; A549, 48 h",3.35 µM
same,TGI,"[24]; A549, time 48 hrs",11.2 µM
same,IC50,"[25]; CAKI-1, 48 h",1.9 µM
same,TGI,"[25]; CAKI-1, time 48 hrs",12.3 µM
same,IC50,[26]; 48 h,3.65 µM
same,TGI,[26]; time 48 hrs,7.91 µM
same,IC50,"[27]; NCI-H23, 48 h",4.34 µM
same,TGI,"[27]; NCI-H23, time 48 hrs",9.34 µM
same,IC50,"[28]; NCI-H460, 48 h",3.48 µM
same,TGI,"[28]; NCI-H460, time 48 hrs",8.89 µM
same,IC50,"[29]; UACC-62, 48 h",4.41 µM
same,TGI,"[29]; UACC-62, time 48 hrs",8.84 µM
same,IC50,"[30]; RXF 393, 48 h",1.08 µM
same,TGI,"[30]; RXF 393, time 48 hrs",4.96 µM
same,IC50,[31],13.6 µM
same,IC50,"[32]; SF-295, 48 h",1.76 µM
same,TGI,"[32]; SF-295, time 48 hrs",6.42 µM
same,IC50,"[33]; OVCAR-4, 48 h",2.13 µM
same,TGI,"[33]; OVCAR-4, time 48 hrs",7.75 µM
same,IC50,[34]; 48 h,1.65 µM
same,TGI,[34]; time 48 hrs,12.8 µM
same,IC50,"[35]; M14, 48 h",2.18 µM
same,TGI,"[35]; M14, time 48 hrs",6.98 µM
same,IC50,"[36]; COLO 205, 48 h",2.97 µM
same,TGI,"[36]; COLO 205, time 48 hrs",8.72 µM
same,IC50,"[37]; SK-OV-3, 48 h",4.49 µM
same,TGI,"[37]; SK-OV-3, time 48 hrs",10.1 µM
same,IC50,"[38]; 786-0, 48 h",1.07 µM
same,TGI,"[38]; 786-0, time 48 hrs",3.71 µM
same,IC50,[39]; 48 h,1.54 µM
same,TGI,[39]; time 48 hrs,6.08 µM

# Source: ChEMBL document CHEMBL5113453, “Design, synthesis, and biological evaluation of a new series of pyrazole derivatives: Discovery of potent and selective JNK3 kinase inhibitors” (Bioorg Med Chem, 2022)
